Laboratory results published in PubChem BioAssay (NCI).
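Step 1: Grow cells in 96-well plates. Step 2: Expose to compound for 48 hours at 5 concentrations. Step 3: Interpolate endpoints linearly; if unreached, use highest concentration. Abbreviation: GI50, concentration required for 50% inhibition of growth. TGI is the concentration that stops growth completely.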

Columns and labels:
Assay in all cases: NCI anticancer screen, dose series, 48 h; in the data active = GI50 below about 0.43 µM; inactive = the rest
SF-268 CNS = tested on: SF-268 CNS
OVCAR-4 ovarian = tested on: OVCAR-4 ovarian
KM12 colon = tested on: KM12 colon
SK-MEL-28 melanoma = tested on: SK-MEL-28 melanoma
ACHN renal = tested on: ACHN renal
HCT-116 colon = tested on: HCT-116 colon
SK-MEL-5 melanoma = tested on: SK-MEL-5 melanoma
UO-31 renal = tested on: UO-31 renal
MOLT-4 leukemia = tested on: MOLT-4 leukemia
OVCAR-8 ovarian = tested on: OVCAR-8 ovarian
DU-145 prostate = tested on: DU-145 prostate
NCI-H522 lung = tested on: NCI-H522 lung
NCI/ADR-RES ovarian = tested on: NCI/ADR-RES ovarian
COLO 205 colon = tested on: COLO 205 colon
PC-3 prostate = tested on: PC-3 prostate
SF-295 CNS = tested on: SF-295 CNS
MALME-3M melanoma = tested on: MALME-3M melanoma
HOP-92 NSCLC = tested on: HOP-92 NSCLC
MDA-MB-435 = tested on: MDA-MB-435
OVCAR-3 ovarian = tested on: OVCAR-3 ovarian
CCRF-CEM leukemia = tested on: CCRF-CEM leukemia
M14 melanoma = tested on: M14 melanoma
SNB-19 CNS = tested on: SNB-19 CNS
SK-OV-3 ovarian = tested on: SK-OV-3 ovarian
U251 CNS = tested on: U251 CNS
A498 renal = tested on: A498 renal
HCT-15 colon = tested on: HCT-15 colon
CAKI-1 renal = tested on: CAKI-1 renal
SR leukemia = tested on: SR leukemia
T-47D breast = tested on: T-47D breast
NCI-H460 lung = tested on: NCI-H460 lung
MCF7 breast = tested on: MCF7 breast
HOP-62 NSCLC = tested on: HOP-62 NSCLC
IGROV1 ovarian = tested on: IGROV1 ovarian
SN12C renal = tested on: SN12C renal
MDA-MB-231 breast = tested on: MDA-MB-231 breast
HT29 colon = tested on: HT29 colon
BT-549 breast = tested on: BT-549 breast
NCI-H226 lung = tested on: NCI-H226 lung
SNB-75 CNS = tested on: SNB-75 CNS
786-0 renal = tested on: 786-0 renal
A549 NSCLC = tested on: A549 NSCLC
NCI-H23 lung = tested on: NCI-H23 lung
OVCAR-5 ovarian = tested on: OVCAR-5 ovarian
SF-539 CNS = tested on: SF-539 CNS
EKVX NSCLC = tested on: EKVX NSCLC
SK-MEL-2 melanoma = tested on: SK-MEL-2 melanoma
LOX IMVI melanoma = tested on: LOX IMVI melanoma
HCC-2998 colon = tested on: HCC-2998 colon
HL-60(TB) leukemia = tested on: HL-60(TB) leukemia
RXF 393 renal = tested on: RXF 393 renal
K-562 leukemia = tested on: K-562 leukemia
UACC-257 melanoma = tested on: UACC-257 melanoma
SW-620 colon = tested on: SW-620 colon
UACC-62 melanoma = tested on: UACC-62 melanoma
TK-10 renal = tested on: TK-10 renal
RPMI-8226 leukemia = tested on: RPMI-8226 leukemia

COc1cc(Nc2ncccc2C(=O)Nc2nc3ccc(F)cc3s2)cc(OC)c1OC
> 100 µM: TGI (SF-268 CNS) | TGI (OVCAR-4 ovarian) | TGI (KM12 colon) | TGI (SK-MEL-28 melanoma) | TGI (ACHN renal) | TGI (HCT-116 colon) | TGI (UO-31 renal) | TGI (OVCAR-8 ovarian) | TGI (DU-145 prostate) | TGI (NCI/ADR-RES ovarian) | TGI (COLO 205 colon) | TGI (PC-3 prostate) | TGI (SF-295 CNS) | TGI (MALME-3M melanoma) | TGI (MDA-MB-435) | TGI (CCRF-CEM leukemia) | TGI (M14 melanoma) | TGI (SNB-19 CNS) | TGI (SK-OV-3 ovarian) | TGI (U251 CNS) | TGI (A498 renal) | TGI (HCT-15 colon) | TGI (CAKI-1 renal) | TGI (SR leukemia) | TGI (NCI-H460 lung) | TGI (MCF7 breast) | TGI (HOP-62 NSCLC) | TGI (SN12C renal) | TGI (MDA-MB-231 breast) | TGI (HT29 colon) | TGI (BT-549 breast) | TGI (NCI-H226 lung) | TGI (SNB-75 CNS) | TGI (786-0 renal) | TGI (A549 NSCLC) | TGI (NCI-H23 lung) | TGI (OVCAR-5 ovarian) | TGI (SF-539 CNS) | TGI (EKVX NSCLC) | TGI (LOX IMVI melanoma)
5.1 µM: TGI (NCI-H522 lung)
6.89 µM: TGI (IGROV1 ovarian)
7.86 µM: TGI (T-47D breast)
inactive: GI50 (SF-268 CNS) 6.56 µM | GI50 (OVCAR-4 ovarian) 2.73 µM | GI50 (KM12 colon) 3.79 µM | GI50 (SK-MEL-28 melanoma) 4.33 µM | GI50 (ACHN renal) 4.82 µM | GI50 (HCT-116 colon) 3.49 µM | GI50 (SK-MEL-5 melanoma) 1.63 µM | GI50 (UO-31 renal) 3.37 µM | GI50 (MOLT-4 leukemia) 2.11 µM | GI50 (OVCAR-8 ovarian) 3.62 µM | GI50 (DU-145 prostate) 5.5 µM | GI50 (NCI-H522 lung) 1.54 µM | GI50 (NCI/ADR-RES ovarian) 2.92 µM | GI50 (COLO 205 colon) 3.04 µM | GI50 (PC-3 prostate) 2.73 µM | GI50 (SF-295 CNS) 2.55 µM | GI50 (MALME-3M melanoma) 3.27 µM | GI50 (HOP-92 NSCLC) 1.48 µM | GI50 (MDA-MB-435) 2.87 µM | GI50 (OVCAR-3 ovarian) 2.77 µM | GI50 (CCRF-CEM leukemia) 3.26 µM | GI50 (M14 melanoma) 3.08 µM | GI50 (SNB-19 CNS) 3.49 µM | GI50 (SK-OV-3 ovarian) 7.4 µM | GI50 (U251 CNS) 3.01 µM | GI50 (A498 renal) 3.45 µM | GI50 (HCT-15 colon) 4.38 µM | GI50 (CAKI-1 renal) 3.15 µM | GI50 (SR leukemia) 2.97 µM | GI50 (T-47D breast) 2.3 µM | GI50 (NCI-H460 lung) 3.3 µM | GI50 (MCF7 breast) 3.23 µM | GI50 (HOP-62 NSCLC) 5.78 µM | GI50 (IGROV1 ovarian) 1.77 µM | GI50 (SN12C renal) 4.73 µM | GI50 (MDA-MB-231 breast) 4.61 µM | GI50 (HT29 colon) 5.15 µM | GI50 (BT-549 breast) 2.63 µM | GI50 (NCI-H226 lung) 2.95 µM | GI50 (SNB-75 CNS) 4.48 µM | GI50 (786-0 renal) 5.51 µM | GI50 (A549 NSCLC) 3.11 µM | GI50 (NCI-H23 lung) 2.27 µM | GI50 (OVCAR-5 ovarian) 25.6 µM | GI50 (SF-539 CNS) 3.84 µM | GI50 (EKVX NSCLC) 2.7 µM | GI50 (SK-MEL-2 melanoma) 2.34 µM | GI50 (LOX IMVI melanoma) 3.87 µM | GI50 (HCC-2998 colon) 2.93 µM
6.96 µM: TGI (HCC-2998 colon)
5.85 µM: TGI (MOLT-4 leukemia)
5.91 µM: TGI (HOP-92 NSCLC)
5.14 µM: TGI (SK-MEL-5 melanoma)
8.04 µM: TGI (SK-MEL-2 melanoma)
33 µM: TGI (OVCAR-3 ovarian)

N/N=C\c1c2ccccc2c(=O)n2c1oc1ccccc12
49.4 µM: TGI (OVCAR-8 ovarian)
64.9 µM: TGI (MOLT-4 leukemia)
46 µM: TGI (NCI-H522 lung)
31 µM: TGI (SNB-75 CNS)
> 100 µM: TGI (OVCAR-4 ovarian) | TGI (HT29 colon) | TGI (SK-MEL-2 melanoma)
32.9 µM: TGI (HOP-62 NSCLC)
61.7 µM: TGI (786-0 renal)
26.2 µM: TGI (EKVX NSCLC)
29.9 µM: TGI (ACHN renal) | TGI (NCI-H23 lung) | TGI (LOX IMVI melanoma)
39 µM: TGI (UACC-257 melanoma)
inactive: GI50 (SF-268 CNS) 15.9 µM | GI50 (OVCAR-4 ovarian) 13.1 µM | GI50 (KM12 colon) 14.6 µM | GI50 (SK-MEL-28 melanoma) 18.8 µM | GI50 (ACHN renal) 16.3 µM | GI50 (SK-MEL-5 melanoma) 2.8 µM | GI50 (UO-31 renal) 25.8 µM | GI50 (MOLT-4 leukemia) 17.4 µM | GI50 (OVCAR-8 ovarian) 19.4 µM | GI50 (DU-145 prostate) 10.6 µM | GI50 (NCI-H522 lung) 13.6 µM | GI50 (HL-60(TB) leukemia) 21.1 µM | GI50 (NCI/ADR-RES ovarian) 16.9 µM | GI50 (COLO 205 colon) 18.3 µM | GI50 (PC-3 prostate) 12.7 µM | GI50 (SF-295 CNS) 2.61 µM | GI50 (HOP-92 NSCLC) 18.9 µM | GI50 (MDA-MB-435) 11.3 µM | GI50 (OVCAR-3 ovarian) 14.7 µM | GI50 (M14 melanoma) 27.3 µM | GI50 (RXF 393 renal) 20 µM | GI50 (K-562 leukemia) 20.8 µM | GI50 (SNB-19 CNS) 17.8 µM | GI50 (SK-OV-3 ovarian) 17.6 µM | GI50 (U251 CNS) 14.6 µM | GI50 (HCT-15 colon) 17.3 µM | GI50 (CAKI-1 renal) 14.2 µM | GI50 (SR leukemia) 5.61 µM | GI50 (UACC-257 melanoma) 17.3 µM | GI50 (T-47D breast) 20.5 µM | GI50 (NCI-H460 lung) 5.47 µM | GI50 (HOP-62 NSCLC) 16.9 µM | GI50 (SW-620 colon) 15.1 µM | GI50 (SN12C renal) 14.4 µM | GI50 (MDA-MB-231 breast) 10.8 µM | GI50 (HT29 colon) 22.1 µM | GI50 (BT-549 breast) 1.42 µM | GI50 (NCI-H226 lung) 14.6 µM | GI50 (SNB-75 CNS) 11.5 µM | GI50 (UACC-62 melanoma) 6.82 µM | GI50 (TK-10 renal) 18.7 µM | GI50 (786-0 renal) 26.7 µM | GI50 (RPMI-8226 leukemia) 9.18 µM | GI50 (A549 NSCLC) 11.2 µM | GI50 (NCI-H23 lung) 15.7 µM | GI50 (OVCAR-5 ovarian) 18.4 µM | GI50 (SF-539 CNS) 11.4 µM | GI50 (EKVX NSCLC) 10.2 µM | GI50 (SK-MEL-2 melanoma) 26.5 µM | GI50 (LOX IMVI melanoma) 16.4 µM | GI50 (HCC-2998 colon) 16.5 µM
83.6 µM: TGI (M14 melanoma)
29 µM: TGI (RPMI-8226 leukemia)
33.9 µM: TGI (NCI-H226 lung)
34.3 µM: TGI (SK-OV-3 ovarian) | TGI (TK-10 renal)
34.6 µM: TGI (HCT-15 colon)
67.6 µM: TGI (K-562 leukemia)
30.5 µM: TGI (HCC-2998 colon)
27.3 µM: TGI (CAKI-1 renal)
18.4 µM: TGI (NCI-H460 lung)
38.1 µM: TGI (NCI/ADR-RES ovarian)
8.34 µM: TGI (SK-MEL-5 melanoma)
87.7 µM: TGI (UO-31 renal)
27.7 µM: TGI (KM12 colon) | TGI (U251 CNS)
34.8 µM: TGI (COLO 205 colon) | TGI (OVCAR-5 ovarian)
24.9 µM: TGI (DU-145 prostate)
12.3 µM: TGI (SF-295 CNS)
41.7 µM: TGI (A549 NSCLC)
30.4 µM: TGI (SF-268 CNS)
26.4 µM: TGI (PC-3 prostate)
50.9 µM: TGI (HL-60(TB) leukemia)
39.9 µM: TGI (T-47D breast)
17 µM: TGI (BT-549 breast)
26 µM: TGI (SR leukemia)
25 µM: TGI (MDA-MB-231 breast)
19.7 µM: TGI (UACC-62 melanoma)
23.6 µM: TGI (SF-539 CNS)
52.5 µM: TGI (RXF 393 renal)
38.7 µM: TGI (SK-MEL-28 melanoma) | TGI (HOP-92 NSCLC) | TGI (SNB-19 CNS)
32.5 µM: TGI (SW-620 colon)
29.7 µM: TGI (SN12C renal)
23.8 µM: TGI (MDA-MB-435)
28 µM: TGI (OVCAR-3 ovarian)
